Patent US20260242330A1, “USE OF AN AMANTADINE MONONITRATE COMPOUND IN MANUFACTURE OF A MEDICAMENT FOR THE PREVENTION AND TREATMENT OF HYPERTENSION” (GUANGZHOU MAGPIE PHARMACEUTICALS CO., LTD., priority 2022, published 2026)

Test system: blood pressure of subjects
Test: Effect of single administration of MN-08 on blood pressure of subjects (clinical trial)
Assay type: in vivo, human
From the text: All subjects in the following embodiments have signed informed consent forms, which comply with medical ethics regulations. According to the relevant provisions of Chinese Guidelines for the Prevention and Treatment of Hypertension (2018 Revision), the values measured for hypertension are the average blood pressure measured three times on a different day without the use of antihypertensive drugs. Therefore, in this embodiment, the baseline blood pressure of the subjects before administration is set as the average blood pressure measured at three different times: screening period, occupancy period, and 1 hour before administration, as shown in Tables 1 to 3.
In the clinical trial of amantadine mononitrate compound MN-08, it is investigated the effect of MN-08 on blood pressure in subjects. The experiments were carried out to analyze the blood pressure status of subjects in both the single dose and multiple dose groups.
During a single administration, each dose group is required to fast for at least 10 hours before administration, without water deprivation overnight, and on the day of administration, the medication is taken on an empty stomach at around 8 a.m., with 240 mL of water administered.

SMILES: CCC12CC3CC(N)(C1)CC(CO[N+](=O)[O-])(C3)C2 (stereo not drawn) [MN-08]
- diastolic pressure reduced by (6 mg single dose, at 6 hours): 17.1%
- systolic pressure reduced by (6 mg single dose, at 6 hours): 13.2%
- DP (Subject 1, 12 mg single dose, 6 hrs after adm. (D 1), baseline 77 mmHg): 64 mmHg
- SP (Subject 1, 12 mg single dose, 6 hrs after adm. (D 1), baseline 122 mmHg): 104 mmHg
- DP (reduce amplitude) (Subject 1, 12 mg single dose, 6 hrs after adm. (D 1), vs baseline 77 mmHg): −16.9%
- SP (reduce amplitude) (Subject 1, 12 mg single dose, 6 hrs after adm. (D 1), vs baseline 122 mmHg): −14.8%
- DP (Subject 1, 12 mg single dose, 12 hrs after adm. (D 1), baseline 77 mmHg): 60 mmHg
- SP (Subject 1, 12 mg single dose, 12 hrs after adm. (D 1), baseline 122 mmHg): 109 mmHg
- DP (reduce amplitude) (Subject 1, 12 mg single dose, 12 hrs after adm. (D 1), vs baseline 77 mmHg): −22.1%
- SP (reduce amplitude) (Subject 1, 12 mg single dose, 12 hrs after adm. (D 1), vs baseline 122 mmHg): −10.7%
- DP (Subject 2, 42 mg single dose, 6 hrs after adm. (D 1), baseline 79 mmHg): 63 mmHg
- SP (Subject 2, 42 mg single dose, 6 hrs after adm. (D 1), baseline 113 mmHg): 96 mmHg
- DP (reduce amplitude) (Subject 2, 42 mg single dose, 6 hrs after adm. (D 1), vs baseline 79 mmHg): −20.3%
- SP (reduce amplitude) (Subject 2, 42 mg single dose, 6 hrs after adm. (D 1), vs baseline 113 mmHg): −15.0%
- DP (Subject 2, 42 mg single dose, 12 hrs after adm. (D 1), baseline 79 mmHg): 69 mmHg
- SP (Subject 2, 42 mg single dose, 12 hrs after adm. (D 1), baseline 113 mmHg): 96 mmHg
- DP (reduce amplitude) (Subject 2, 42 mg single dose, 12 hrs after adm. (D 1), vs baseline 79 mmHg): −12.7%
- SP (reduce amplitude) (Subject 2, 42 mg single dose, 12 hrs after adm. (D 1), vs baseline 113 mmHg): −15.0%
- DP (Subject 3, 42 mg single dose, 6 hrs after adm. (D 1), baseline 85 mmHg): 72 mmHg
- SP (Subject 3, 42 mg single dose, 6 hrs after adm. (D 1), baseline 124 mmHg): 118 mmHg
- DP (reduce amplitude) (Subject 3, 42 mg single dose, 6 hrs after adm. (D 1), vs baseline 85 mmHg): −15.3%
- SP (reduce amplitude) (Subject 3, 42 mg single dose, 6 hrs after adm. (D 1), vs baseline 124 mmHg): −4.8%
- DP (Subject 3, 42 mg single dose, 12 hrs after adm. (D 1), baseline 85 mmHg): 61 mmHg
- SP (Subject 3, 42 mg single dose, 12 hrs after adm. (D 1), baseline 124 mmHg): 98 mmHg
- DP (reduce amplitude) (Subject 3, 42 mg single dose, 12 hrs after adm. (D 1), vs baseline 85 mmHg): −28.2%
- SP (reduce amplitude) (Subject 3, 42 mg single dose, 12 hrs after adm. (D 1), vs baseline 124 mmHg): −21.0%
- DP (Subject 4, 60 mg single dose, 6 hrs after adm. (D 1), baseline 78 mmHg): 58 mmHg
- SP (Subject 4, 60 mg single dose, 6 hrs after adm. (D 1), baseline 107 mmHg): 93 mmHg
- DP (reduce amplitude) (Subject 4, 60 mg single dose, 6 hrs after adm. (D 1), vs baseline 78 mmHg): −25.6%
- SP (reduce amplitude) (Subject 4, 60 mg single dose, 6 hrs after adm. (D 1), vs baseline 107 mmHg): −13.1%
- DP (Subject 4, 60 mg single dose, 12 hrs after adm. (D 1), baseline 78 mmHg): 58 mmHg
- SP (Subject 4, 60 mg single dose, 12 hrs after adm. (D 1), baseline 107 mmHg): 90 mmHg
- DP (reduce amplitude) (Subject 4, 60 mg single dose, 12 hrs after adm. (D 1), vs baseline 78 mmHg): −25.6%
- SP (reduce amplitude) (Subject 4, 60 mg single dose, 12 hrs after adm. (D 1), vs baseline 107 mmHg): −15.9%
- DP (Subject 5, 60 mg single dose, 6 hrs after adm. (D 1), baseline 73 mmHg): 62 mmHg
- SP (Subject 5, 60 mg single dose, 6 hrs after adm. (D 1), baseline 111 mmHg): 93 mmHg
- DP (reduce amplitude) (Subject 5, 60 mg single dose, 6 hrs after adm. (D 1), vs baseline 73 mmHg): −15.1%
- SP (reduce amplitude) (Subject 5, 60 mg single dose, 6 hrs after adm. (D 1), vs baseline 111 mmHg): −16.2%
- DP (Subject 5, 60 mg single dose, 12 hrs after adm. (D 1), baseline 73 mmHg): 61 mmHg
- SP (Subject 5, 60 mg single dose, 12 hrs after adm. (D 1), baseline 111 mmHg): 95 mmHg
- DP (reduce amplitude) (Subject 5, 60 mg single dose, 12 hrs after adm. (D 1), vs baseline 73 mmHg): −16.4%
- SP (reduce amplitude) (Subject 5, 60 mg single dose, 12 hrs after adm. (D 1), vs baseline 111 mmHg): −14.4%
- DP (Subject 6, 78 mg single dose, 6 hrs after adm. (D 1), baseline 67 mmHg): 61 mmHg
- SP (Subject 6, 78 mg single dose, 6 hrs after adm. (D 1), baseline 113 mmHg): 103 mmHg
- DP (reduce amplitude) (Subject 6, 78 mg single dose, 6 hrs after adm. (D 1), vs baseline 67 mmHg): −9.0%
- SP (reduce amplitude) (Subject 6, 78 mg single dose, 6 hrs after adm. (D 1), vs baseline 113 mmHg): −8.8%
- DP (Subject 6, 78 mg single dose, 12 hrs after adm. (D 1), baseline 67 mmHg): 54 mmHg
- SP (Subject 6, 78 mg single dose, 12 hrs after adm. (D 1), baseline 113 mmHg): 104 mmHg
- DP (reduce amplitude) (Subject 6, 78 mg single dose, 12 hrs after adm. (D 1), vs baseline 67 mmHg): −19.4%
- SP (reduce amplitude) (Subject 6, 78 mg single dose, 12 hrs after adm. (D 1), vs baseline 113 mmHg): −8.0%
- DP (Subject 7, 78 mg single dose, 6 hrs after adm. (D 1), baseline 74 mmHg): 62 mmHg
- SP (Subject 7, 78 mg single dose, 6 hrs after adm. (D 1), baseline 106 mmHg): 94 mmHg
- DP (reduce amplitude) (Subject 7, 78 mg single dose, 6 hrs after adm. (D 1), vs baseline 74 mmHg): −16.2%
- SP (reduce amplitude) (Subject 7, 78 mg single dose, 6 hrs after adm. (D 1), vs baseline 106 mmHg): −11.3%
